Measured values reported in US20080000489A1, “Method and preparation for binding aldehydes in saliva” (BIOHIT OYJ, priority 2000, published 2008).

Test: Salivary acetaldehyde in smokers sucking blinded L-cysteine tablets during cigarette smoking, gas chromatography
Format: in vivo, human
Conditions: for mean salivary acetaldehyde concentration immediately after smoking: five smokers, placebo 191.2±48.5 μM
Description: Five smokers (age 29±2.8) participated in the study, in which […] were smoked (wash-out periods between). During every cigarette smoking (in 5 min time) volunteers sucked blinded tablets containing placebo, 1.25 mg, 2.5 mg, 5 mg, 10 mg or 20 mg L-cysteine. Acetaldehyde was analysed from salivary samples gas chromatographically at 0, 5, 10, 20 min from the beginning of smoking.
The mean salivary acetaldehyde concentrations immediately after smoking were 191.2±48.5 μM, 0 μM, 0 μM, 0 μM with placebo, 5 mg, 10 mg and 20 mg L-cysteine tablets, respectively.

For `N[C@@H](CS)C(=O)O` [L-cysteine], the “amount of acetaldehyde compared to placebo” value (1.25 mg L-cysteine tablet) was “about to third compared to placebo”, the “mean salivary acetaldehyde concentration immediately after smoking” value (5 mg L-cysteine tablet sucked during 5 min smoking) was 0 µM and the “carcinogenic acetaldehyde in the saliva during smoking” value (5 mg of L-cysteine administered by melting-tablet) was “totally inactivates”. For the same molecule, the “mean salivary acetaldehyde concentration immediately after smoking” value (10 mg L-cysteine tablet sucked during 5 min smoking) was 0 µM, the “mean salivary acetaldehyde concentration immediately after smoking” value (20 mg L-cysteine tablet sucked during 5 min smoking) was 0 µM and the “tobacco-originated acetaldehyde from the saliva” value (L-cysteine tablets 5 mg, 10 and 20 mg, FIG. 4) was “totally eradicated”.
